Measured values published in BindingDB's records for patent US12378251 (Shanghai Institute Of Materia Medica, 2025).

What follows are compounds tested against NEDD8-activating enzyme E1 regulatory subunit/NEDD8-activating enzyme E1 catalytic subunit (Human, UniProt Q8TBC4) (assay: Test of Inhibiting NAE Enzyme Activity at the Molecular Level).
Method: 1. Preliminary Evaluation Experiment of Inhibiting NAE Enzyme Activity at the Molecular Level by CompoundsHomogeneous Time-Resolved Fluorescence (HTRF) technology was used to detect the in vitro inhibitory effect of the compound on NAE enzyme activity. […] IC50 was calculated with a GraphPad software.

NEDD8-activating enzyme E1 regulatory subunit/NEDD8-activating enzyme E1 catalytic subunit, sequence (Q13564 whole entry): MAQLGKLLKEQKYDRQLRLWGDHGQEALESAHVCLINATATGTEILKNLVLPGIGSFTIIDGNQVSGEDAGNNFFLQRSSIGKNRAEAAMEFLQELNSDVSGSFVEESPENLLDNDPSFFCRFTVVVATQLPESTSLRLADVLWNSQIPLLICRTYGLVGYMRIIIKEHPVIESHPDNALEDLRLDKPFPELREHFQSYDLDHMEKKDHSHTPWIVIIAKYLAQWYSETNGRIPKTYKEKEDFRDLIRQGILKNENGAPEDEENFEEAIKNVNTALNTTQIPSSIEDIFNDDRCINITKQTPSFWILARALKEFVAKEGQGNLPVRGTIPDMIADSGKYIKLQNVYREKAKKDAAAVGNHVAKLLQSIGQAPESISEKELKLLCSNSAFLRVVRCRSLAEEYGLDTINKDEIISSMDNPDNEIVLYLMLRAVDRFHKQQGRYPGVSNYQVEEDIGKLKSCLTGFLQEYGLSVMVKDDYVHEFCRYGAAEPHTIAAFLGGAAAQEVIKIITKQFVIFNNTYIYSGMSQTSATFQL
NEDD8-activating enzyme E1 regulatory subunit/NEDD8-activating enzyme E1 catalytic subunit, sequence (Q8TBC4 whole entry): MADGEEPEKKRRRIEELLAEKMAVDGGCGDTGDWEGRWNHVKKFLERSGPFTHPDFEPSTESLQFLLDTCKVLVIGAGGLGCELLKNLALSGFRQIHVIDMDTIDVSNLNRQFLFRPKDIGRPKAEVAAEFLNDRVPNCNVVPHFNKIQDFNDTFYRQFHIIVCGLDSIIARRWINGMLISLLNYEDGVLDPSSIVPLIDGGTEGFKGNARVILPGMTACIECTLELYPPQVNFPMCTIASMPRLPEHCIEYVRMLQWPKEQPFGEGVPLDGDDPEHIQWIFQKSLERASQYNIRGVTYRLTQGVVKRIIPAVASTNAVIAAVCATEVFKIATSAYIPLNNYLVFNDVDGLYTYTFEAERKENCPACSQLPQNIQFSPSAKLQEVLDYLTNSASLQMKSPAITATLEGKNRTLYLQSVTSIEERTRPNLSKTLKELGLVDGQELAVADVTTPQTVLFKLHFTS

| SMILES | IC50 [nM] |
| --- | --- |
| NS(=O)(=O)OCC1CC(n2nnc3c(N[C@H]4CCc5ccccc54)ncnc32)CC1O (some centres undefined) [US12378251, Compound S1] | < 100 |
| NS(=O)(=O)OCC1CC(n2nnc3c(NCc4ccccc4F)ncnc32)CC1O (centres undefined) [US12378251, Compound S2] | < 100 |
| NS(=O)(=O)OCC1CC(n2nnc3c(NCc4cccs4)ncnc32)CC1O (centres undefined) [US12378251, Compound S3] | < 100 |
| NS(=O)(=O)OCC1CC(n2nnc3c(NCc4ccco4)ncnc32)CC1O (centres undefined) [US12378251, Compound S4] | < 100 |
| NS(=O)(=O)OCC1CC(n2nnc3c(NCCc4ccccc4)ncnc32)CC1O (centres undefined) [US12378251, Compound S6] | < 100 |
| CCCCCCNc1ncnc2c1nnn2C1CC(O)C(COS(N)(=O)=O)C1 (centres undefined) [US12378251, Compound S8] | < 100 |
| NS(=O)(=O)OCC1CC(n2nnc3c(N[C@@H]4c5ccccc5C[C@@H]4O)ncnc32)CC1O (some centres undefined) [US12378251, Compound S9] | < 100 |
| NS(=O)(=O)OCC1CC(n2nnc3c(N[C@H]4CC5(CCNCC5)c5ccccc54)ncnc32)CC1O (some centres undefined) [US12378251, Compound S14] | < 100 |
| NS(=O)(=O)OC[C@@H]1C[C@@H](n2nnc3c(N[C@@H]4C[C@H]4c4ccc(F)c(F)c4)ncnc32)CC1O (some centres undefined) [US12378251, Compound S16] | > 1000 |
| NS(=O)(=O)OCC1CC(n2nnc3c(Nc4n[nH]c5ccccc45)ncnc32)CC1O (centres undefined) [US12378251, Compound S17] | > 1000 |
| NS(=O)(=O)OCC1CC(n2nnc3c(Nn4ccc5ccccc54)ncnc32)CC1O (centres undefined) [US12378251, Compound S18] | > 1000 |
| NS(=O)(=O)OCC1CC(n2nnc3c(Nc4cnc5ccccn45)ncnc32)CC1O (centres undefined) [US12378251, Compound S19] | > 1000 |
| COC(=O)[C@H]1C=C[C@@H](Nc2ncnc3c2nnn3C2CC(O)C(COS(N)(=O)=O)C2)C1 (some centres undefined) [US12378251, Compound S20] | < 100 |
| NS(=O)(=O)OCC1CC(n2nnc3c(NC4CCCC4)ncnc32)CC1O (centres undefined) [US12378251, Compound S21] | > 1000 |
